# Reference: ChEMBL document CHEMBL3763124, “N-Benzylbenzamides: A Novel Merged Scaffold for Orally Available Dual Soluble Epoxide Hydrolase/Peroxisome Proliferator-Activated Receptor γ Modulators” (J Med Chem, 2016)
# Active and inactive are the calls of the source. The calls are words filed in the database; no cut-off is given here.
# Columns and labels:
# [1] = target: T1, Peroxisome proliferator-activated receptor delta (Homo sapiens) (UniProt Q03181); assay: Transactivation of human PPARdelta expressed in African green monkey COS7 cells at 10 uM incubated overnight by dual-glo luciferase reporter assay; format: cell-based; settings: COS-7
# T1 sequence (whole entry): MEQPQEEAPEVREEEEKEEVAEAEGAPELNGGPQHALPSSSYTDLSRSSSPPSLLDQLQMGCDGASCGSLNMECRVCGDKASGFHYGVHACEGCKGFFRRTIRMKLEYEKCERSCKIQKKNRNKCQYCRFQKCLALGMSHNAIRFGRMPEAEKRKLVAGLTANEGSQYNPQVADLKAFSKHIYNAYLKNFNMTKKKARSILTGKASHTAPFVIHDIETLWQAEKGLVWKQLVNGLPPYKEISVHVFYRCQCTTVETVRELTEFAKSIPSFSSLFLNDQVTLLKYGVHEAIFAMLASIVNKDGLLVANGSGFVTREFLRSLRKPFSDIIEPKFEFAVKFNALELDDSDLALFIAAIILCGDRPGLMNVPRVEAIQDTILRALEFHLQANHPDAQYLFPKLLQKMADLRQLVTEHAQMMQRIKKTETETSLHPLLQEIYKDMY
# [2] = target: T2, Peroxisome proliferator-activated receptor delta (Homo sapiens, UniProt Q03181); assay: Transactivation of human PPARdelta expressed in African green monkey COS7 cells incubated overnight by dual-glo luciferase reporter gene assay; format: cell-based; settings: cos-7
# T2 sequence (Q03181 whole entry): T1 sequence (whole entry)
# [3] = target: T3, Peroxisome proliferator-activated receptor alpha (Homo sapiens, UniProt Q07869); settings: cos-7
# T3 sequence (Q07869 whole entry): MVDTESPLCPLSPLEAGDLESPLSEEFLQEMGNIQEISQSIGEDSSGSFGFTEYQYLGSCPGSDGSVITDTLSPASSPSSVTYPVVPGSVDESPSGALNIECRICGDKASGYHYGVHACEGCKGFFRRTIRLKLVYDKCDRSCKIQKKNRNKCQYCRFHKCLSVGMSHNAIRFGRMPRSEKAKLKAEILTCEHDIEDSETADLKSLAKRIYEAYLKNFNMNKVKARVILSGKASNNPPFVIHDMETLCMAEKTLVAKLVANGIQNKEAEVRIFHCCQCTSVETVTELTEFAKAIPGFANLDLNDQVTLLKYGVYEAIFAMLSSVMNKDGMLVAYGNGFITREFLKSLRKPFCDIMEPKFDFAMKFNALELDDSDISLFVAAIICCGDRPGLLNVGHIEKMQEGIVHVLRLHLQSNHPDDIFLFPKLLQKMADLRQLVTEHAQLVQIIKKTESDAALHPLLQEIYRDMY
# Description: Transactivation of human PPARalpha expressed in African green monkey COS7 cells incubated overnight by dual-glo luciferase reporter gene assay
# [4] = target: T4, Peroxisome proliferator-activated receptor alpha (Homo sapiens) (UniProt Q07869); assay: Transactivation of human PPARalpha expressed in African green monkey COS7 cells incubated overnight by dual-glo luciferase reporter assay relative to GW7647; format: cell-based; settings: COS-7
# T4 sequence (whole entry): T3 sequence (Q07869 whole entry)
# [5] = target: T5, Peroxisome proliferator-activated receptor gamma (Homo sapiens) (UniProt P37231); assay: Transactivation of human PPARgamma expressed in African green monkey COS7 cells at 10 uM incubated overnight by dual-glo luciferase reporter gene assay; format: cell-based; settings: COS-7
# T5 sequence (whole entry): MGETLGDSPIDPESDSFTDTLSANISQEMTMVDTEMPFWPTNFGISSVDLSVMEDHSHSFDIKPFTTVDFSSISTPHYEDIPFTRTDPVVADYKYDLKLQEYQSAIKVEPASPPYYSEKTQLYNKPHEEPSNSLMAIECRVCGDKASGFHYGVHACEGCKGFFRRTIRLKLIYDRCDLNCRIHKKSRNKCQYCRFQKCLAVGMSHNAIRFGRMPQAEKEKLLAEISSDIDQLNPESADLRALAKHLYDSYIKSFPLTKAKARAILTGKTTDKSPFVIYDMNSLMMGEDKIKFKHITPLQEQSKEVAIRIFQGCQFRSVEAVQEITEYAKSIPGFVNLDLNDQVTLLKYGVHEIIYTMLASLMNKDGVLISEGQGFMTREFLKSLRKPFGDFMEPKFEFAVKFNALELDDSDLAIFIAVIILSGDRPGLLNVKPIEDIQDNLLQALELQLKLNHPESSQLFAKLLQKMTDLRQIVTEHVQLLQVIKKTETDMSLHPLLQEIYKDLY
# Mus musculus [6] = assay: AUC (0 to infinity) in RjOrl:Swiss (CD-1) mouse plasma assessed as 2-Ethyl-3-[4-(N-((2-trifluoromethyl)benzyl)benzamide)]-propionic Acid at 30 mg/kg, po administered as single dose; format: ADME, organism-based; set-up: dose 30 mg/kg, route oral, time infinity; settings: in vivo
# Mus musculus [7] = assay: Drug metabolism in RjOrl:Swiss (CD-1) mouse plasma assessed as 2-Ethyl-3-[4-(N-((2-trifluoromethyl)benzyl)benzamide)]-propionic Acid formation at 30 mg/kg, po administered as single dose; format: ADME, organism-based; settings: in vivo
# Mus musculus [8] = assay: Tmax in RjOrl:Swiss (CD-1) mouse plasma assessed as 2-Ethyl-3-[4-(N-((2-trifluoromethyl)benzyl)benzamide)]-propionic Acid at 30 mg/kg, po administered as single dose; format: ADME, organism-based; settings: in vivo
# [9] = Solubility of the compound in water by microplate reader analysis; format: physicochemical
# Brain = assay: Drug uptake in RjOrl:Swiss (CD-1) mouse brain assessed as 2-Ethyl-3-[4-(N-((2-trifluoromethyl)benzyl)benzamide)]-propionic Acid at 30 mg/kg, po administered as single dose; format: ADME, organism-based; settings: in vivo
# Mus musculus [10] = assay: Apparent volume of distribution during terminal phase in RjOrl:Swiss (CD-1) mouse plasma assessed as 2-Ethyl-3-[4-(N-((2-trifluoromethyl)benzyl)benzamide)]-propionic Acid at 30 mg/kg, po administered as single dose; format: ADME, organism-based; settings: in vivo
# Mus musculus [11] = assay: Apparent oral clearance in RjOrl:Swiss (CD-1) mouse plasma assessed as 2-Ethyl-3-[4-(N-((2-trifluoromethyl)benzyl)benzamide)]-propionic Acid at 30 mg/kg administered as single dose; format: ADME, organism-based; settings: in vivo
# Mus musculus [12] = assay: Cmax in RjOrl:Swiss (CD-1) mouse plasma assessed as 2-Ethyl-3-[4-(N-((2-trifluoromethyl)benzyl)benzamide)]-propionic Acid at 30 mg/kg, po administered as single dose; format: ADME, organism-based; set-up: dose 30 mg/kg, route oral; settings: in vivo
# [13] = target: T6, Peroxisome proliferator-activated receptor gamma (Homo sapiens, UniProt P37231); settings: cos-7
# T6 sequence (P37231 whole entry): T5 sequence (whole entry)
# Description: Transactivation of human PPARgamma expressed in African green monkey COS7 cells incubated overnight by dual-glo luciferase reporter gene assay
# [14] = target: T7, Bifunctional epoxide hydrolase 2 (Homo sapiens, UniProt P34913); assay: Inhibition of human recombinant sEH using PHOME as substrate preincubated for 30 mins followed by substrate addition measured for 30 mins by fluorescence-based assay
# T7 sequence (P34913 whole entry): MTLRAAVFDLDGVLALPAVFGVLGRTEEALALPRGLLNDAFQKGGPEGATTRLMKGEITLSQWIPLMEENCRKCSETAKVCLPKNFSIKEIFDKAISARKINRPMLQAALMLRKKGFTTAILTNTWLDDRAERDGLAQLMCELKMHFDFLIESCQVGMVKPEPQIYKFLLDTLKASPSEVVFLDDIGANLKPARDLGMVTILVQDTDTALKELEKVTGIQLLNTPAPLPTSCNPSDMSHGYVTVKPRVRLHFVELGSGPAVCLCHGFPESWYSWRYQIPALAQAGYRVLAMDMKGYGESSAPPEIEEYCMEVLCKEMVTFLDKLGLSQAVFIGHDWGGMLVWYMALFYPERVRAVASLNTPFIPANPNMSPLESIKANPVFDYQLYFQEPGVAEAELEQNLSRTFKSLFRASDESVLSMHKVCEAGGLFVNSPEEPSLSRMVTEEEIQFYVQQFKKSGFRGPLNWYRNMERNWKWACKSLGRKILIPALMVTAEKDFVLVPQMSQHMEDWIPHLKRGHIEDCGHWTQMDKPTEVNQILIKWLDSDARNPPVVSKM
SMILES,Emax [1],EC50 [2],EC50 [3],Emax [4],Activity [5] [%],AUC (Mus musculus [6]) [ng·h/mL],Drug metabolism (Mus musculus [7]),Tmax (Mus musculus [8]) [min],solubility [9] [µM],Drug uptake (Brain) [ng/g],Vz/F (Mus musculus [10]) [L/kg],CL/F (Mus musculus [11]) [mL/min/kg],Cmax (Mus musculus [12]) [nM],EC50 [13],IC50 [14] [µM]
O=C(O)c1cccc(-c2ccc(C(=O)NCc3ccccc3C(F)(F)F)cc2)c1,inactive,Not Active,Not Active,inactive,28,–,–,–,–,–,–,–,–,–,–
CCOC(=O)C(CC)Cc1ccc(C(=O)NCc2ccccc2C(F)(F)F)cc1 (centres undefined),inactive,Not Active,Not Active,inactive,–,4026,metabolite_detected,30,2.5,30,54.3,125,2000,–,–
CON(C)C(=O)/C=C/c1ccc(C(=O)NCc2ccccc2C(F)(F)F)cc1,inactive,Not Active,Not Active,inactive,–,–,–,–,–,–,–,–,–,Not Active,–
CCOC(=O)C(CC)Cc1ccc(C(=O)NCc2ccccc2Br)cc1 (centres undefined),–,Not Active,Not Active,inactive,–,–,–,–,20,–,–,–,–,Not Active,4
O=C(O)c1ccc(-c2ccc(C(=O)NCc3ccccc3C(F)(F)F)cc2)cc1,inactive,Not Active,Not Active,inactive,30,–,–,–,3.75,–,–,–,–,–,–
